Data from PubChem BioAssay (NCI).
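Tested at 5 concentrations; 48 h exposure; 96-well plates; endpoints linearly interpolated, else capped at highest concentration. At the TGI there is no net growth.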

How the values were obtained:
Test in all cases: DTP human tumour cell line panel, 48 h
786-0 renal = test system: 786-0 renal
A498 renal = test system: A498 renal
A549 NSCLC = test system: A549 NSCLC
ACHN renal = test system: ACHN renal
BT-549 breast = test system: BT-549 breast
CAKI-1 renal = test system: CAKI-1 renal
CCRF-CEM leukemia = test system: CCRF-CEM leukemia
COLO 205 colon = test system: COLO 205 colon
DU-145 prostate = test system: DU-145 prostate
EKVX NSCLC = test system: EKVX NSCLC
HCC-2998 colon = test system: HCC-2998 colon
HCT-116 colon = test system: HCT-116 colon
HCT-15 colon = test system: HCT-15 colon
HL-60(TB) leukemia = test system: HL-60(TB) leukemia
HOP-62 NSCLC = test system: HOP-62 NSCLC
HOP-92 NSCLC = test system: HOP-92 NSCLC
HS 578T breast = test system: HS 578T breast
HT29 colon = test system: HT29 colon
IGROV1 ovarian = test system: IGROV1 ovarian
K-562 leukemia = test system: K-562 leukemia
KM12 colon = test system: KM12 colon
LOX IMVI melanoma = test system: LOX IMVI melanoma
M14 melanoma = test system: M14 melanoma
MALME-3M melanoma = test system: MALME-3M melanoma
MCF7 breast = test system: MCF7 breast
MDA-MB-231 breast = test system: MDA-MB-231 breast
MDA-MB-435 = test system: MDA-MB-435
MOLT-4 leukemia = test system: MOLT-4 leukemia
NCI-H226 lung = test system: NCI-H226 lung
NCI-H23 lung = test system: NCI-H23 lung
NCI-H460 lung = test system: NCI-H460 lung
NCI-H522 lung = test system: NCI-H522 lung
NCI/ADR-RES ovarian = test system: NCI/ADR-RES ovarian
OVCAR-3 ovarian = test system: OVCAR-3 ovarian
OVCAR-4 ovarian = test system: OVCAR-4 ovarian
OVCAR-5 ovarian = test system: OVCAR-5 ovarian
RXF 393 renal = test system: RXF 393 renal
SF-268 CNS = test system: SF-268 CNS
SF-295 CNS = test system: SF-295 CNS
SF-539 CNS = test system: SF-539 CNS
SK-MEL-2 melanoma = test system: SK-MEL-2 melanoma
SK-MEL-5 melanoma = test system: SK-MEL-5 melanoma
SK-OV-3 ovarian = test system: SK-OV-3 ovarian
SN12C renal = test system: SN12C renal
SNB-19 CNS = test system: SNB-19 CNS
SNB-75 CNS = test system: SNB-75 CNS
SR leukemia = test system: SR leukemia
SW-620 colon = test system: SW-620 colon
T-47D breast = test system: T-47D breast
TK-10 renal = test system: TK-10 renal
U251 CNS = test system: U251 CNS
UACC-257 melanoma = test system: UACC-257 melanoma
UACC-62 melanoma = test system: UACC-62 melanoma
UO-31 renal = test system: UO-31 renal
OVCAR-8 ovarian = test system: OVCAR-8 ovarian
PC-3 prostate = test system: PC-3 prostate
RPMI-8226 leukemia = test system: RPMI-8226 leukemia
SK-MEL-28 melanoma = test system: SK-MEL-28 melanoma

CCOC(=O)C(C(=O)OCC)C(=O)c1ccccc1C(=O)c1ccccc1
TGI (786-0 renal): > 100 µM | TGI (A498 renal): > 100 µM | TGI (A549 NSCLC): > 100 µM | TGI (ACHN renal): > 100 µM | TGI (BT-549 breast): > 100 µM | TGI (CAKI-1 renal): > 100 µM | TGI (CCRF-CEM leukemia): > 100 µM | TGI (COLO 205 colon): > 100 µM | TGI (DU-145 prostate): > 100 µM | TGI (EKVX NSCLC): 96.7 µM | TGI (HCC-2998 colon): > 100 µM | TGI (HCT-116 colon): > 100 µM | TGI (HCT-15 colon): > 100 µM | TGI (HL-60(TB) leukemia): > 100 µM | TGI (HOP-62 NSCLC): > 100 µM | TGI (HOP-92 NSCLC): > 100 µM | TGI (HS 578T breast): > 100 µM | TGI (HT29 colon): > 100 µM | TGI (IGROV1 ovarian): > 100 µM | TGI (K-562 leukemia): > 100 µM | TGI (KM12 colon): > 100 µM | TGI (LOX IMVI melanoma): > 100 µM | TGI (M14 melanoma): > 100 µM | TGI (MALME-3M melanoma): > 100 µM | TGI (MCF7 breast): > 100 µM | TGI (MDA-MB-231 breast): > 100 µM | TGI (MDA-MB-435): > 100 µM | TGI (MOLT-4 leukemia): 83.6 µM | TGI (NCI-H226 lung): > 100 µM | TGI (NCI-H23 lung): > 100 µM | TGI (NCI-H460 lung): > 100 µM | TGI (NCI-H522 lung): > 100 µM | TGI (NCI/ADR-RES ovarian): > 100 µM | TGI (OVCAR-3 ovarian): > 100 µM | TGI (OVCAR-4 ovarian): > 100 µM | TGI (OVCAR-5 ovarian): > 100 µM | TGI (RXF 393 renal): > 100 µM | TGI (SF-268 CNS): > 100 µM | TGI (SF-295 CNS): > 100 µM | TGI (SF-539 CNS): > 100 µM | TGI (SK-MEL-2 melanoma): > 100 µM | TGI (SK-MEL-5 melanoma): > 100 µM | TGI (SK-OV-3 ovarian): > 100 µM | TGI (SN12C renal): > 100 µM | TGI (SNB-19 CNS): > 100 µM | TGI (SNB-75 CNS): > 100 µM | TGI (SR leukemia): 48.8 µM | TGI (SW-620 colon): 50.5 µM | TGI (T-47D breast): > 100 µM | TGI (TK-10 renal): > 100 µM | TGI (U251 CNS): > 100 µM | TGI (UACC-257 melanoma): > 100 µM | TGI (UACC-62 melanoma): > 100 µM | TGI (UO-31 renal): > 100 µM

CC12CCC(C(=Nc3cc(C(F)(F)F)cc(C(F)(F)F)c3)C1=O)C2(C)C (configuration not stated)
TGI (786-0 renal): > 100 µM | TGI (A498 renal): 62.5 µM | TGI (A549 NSCLC): > 100 µM | TGI (ACHN renal): > 100 µM | TGI (BT-549 breast): > 100 µM | TGI (CAKI-1 renal): > 100 µM | TGI (CCRF-CEM leukemia): > 100 µM | TGI (COLO 205 colon): 34.1 µM | TGI (DU-145 prostate): > 100 µM | TGI (EKVX NSCLC): > 100 µM | TGI (HCC-2998 colon): 73.3 µM | TGI (HCT-116 colon): 99 µM | TGI (HCT-15 colon): > 100 µM | TGI (HL-60(TB) leukemia): 23.8 µM | TGI (HOP-62 NSCLC): > 100 µM | TGI (HT29 colon): > 100 µM | TGI (IGROV1 ovarian): 76.1 µM | TGI (K-562 leukemia): > 100 µM | TGI (KM12 colon): 91.7 µM | TGI (LOX IMVI melanoma): 29.9 µM | TGI (M14 melanoma): > 100 µM | TGI (MALME-3M melanoma): 69.4 µM | TGI (MCF7 breast): > 100 µM | TGI (MDA-MB-231 breast): > 100 µM | TGI (MDA-MB-435): > 100 µM | TGI (MOLT-4 leukemia): 44.2 µM | TGI (NCI-H226 lung): > 100 µM | TGI (NCI-H23 lung): > 100 µM | TGI (NCI-H460 lung): > 100 µM | TGI (NCI/ADR-RES ovarian): > 100 µM | TGI (OVCAR-3 ovarian): > 100 µM | TGI (OVCAR-4 ovarian): > 100 µM | TGI (OVCAR-5 ovarian): > 100 µM | TGI (OVCAR-8 ovarian): > 100 µM | TGI (PC-3 prostate): > 100 µM | TGI (RPMI-8226 leukemia): 44.7 µM | TGI (RXF 393 renal): 37.3 µM | TGI (SF-268 CNS): 84.5 µM | TGI (SF-295 CNS): > 100 µM | TGI (SF-539 CNS): 44.9 µM | TGI (SK-MEL-2 melanoma): 51.2 µM | TGI (SK-MEL-28 melanoma): > 100 µM | TGI (SK-MEL-5 melanoma): > 100 µM | TGI (SK-OV-3 ovarian): > 100 µM | TGI (SNB-19 CNS): > 100 µM | TGI (SR leukemia): 46.4 µM | TGI (SW-620 colon): > 100 µM | TGI (T-47D breast): 74.3 µM | TGI (TK-10 renal): > 100 µM | TGI (U251 CNS): > 100 µM | TGI (UACC-257 melanoma): > 100 µM | TGI (UACC-62 melanoma): > 100 µM | TGI (UO-31 renal): > 100 µM
